Calls of active or inactive are those of the source.
Experiments:
CAAX prenyl protease 1 = CAAX prenyl protease 1 (Saccharomyces cerevisiae S288c, UniProt P47154); assay: Ste24 protease inhibitors, dose response, biochemical, S. cerevisiae, plate reader, cherry-pick (AID 488815)
[1] = target: T1, Heat shock factor protein 1 (Mus musculus, UniProt P38532); assay: inhibition of MG132-induced HSE-luciferase signal, confirmation, cell-based, NIH3T3, luminescence, dose retest (AID 2382); assay type: functional;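 further: NIH3T3 fibroblasts with HSF1-driven luciferase reporter stressed by proteasome inhibitor MG132; luminescence from HSF1-driven luciferase expression after 8 hours of MG132 stress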
T1 sequence (P38532 whole entry): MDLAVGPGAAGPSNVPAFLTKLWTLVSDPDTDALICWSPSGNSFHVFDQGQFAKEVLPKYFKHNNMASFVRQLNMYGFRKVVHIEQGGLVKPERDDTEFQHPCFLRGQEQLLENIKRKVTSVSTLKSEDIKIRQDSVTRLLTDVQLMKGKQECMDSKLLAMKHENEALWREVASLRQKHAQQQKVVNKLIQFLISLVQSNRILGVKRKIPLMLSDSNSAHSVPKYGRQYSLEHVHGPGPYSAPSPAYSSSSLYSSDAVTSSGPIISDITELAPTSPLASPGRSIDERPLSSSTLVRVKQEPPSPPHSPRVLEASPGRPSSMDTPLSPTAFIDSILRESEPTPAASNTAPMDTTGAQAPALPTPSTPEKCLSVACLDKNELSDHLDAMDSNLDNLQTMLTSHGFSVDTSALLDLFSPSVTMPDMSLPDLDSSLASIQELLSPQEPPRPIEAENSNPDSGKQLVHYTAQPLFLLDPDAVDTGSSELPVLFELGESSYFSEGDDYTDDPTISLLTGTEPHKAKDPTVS

Jurkat = assay: antigen receptor-induced NF-kB inhibitors, dose response, Jurkat, luciferase reporter, luminescence, B- and T-cell (AID 489004); assay type: functional, cell-based; conditions: Homo sapiens;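 further: NF-kB luciferase reporter Jurkat cells stimulated with PMA plus ionomycin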
BJ = assay: cytotoxicity toward Ras-transformed BJeLR fibroblasts, dose response, cell-based, alamar blue fluorescence, cherrypicked samples (AID 2631); assay type: functional; conditions: Homo sapiens;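 further: confirmatory dose-response assay in RAS-dependent BJ fibroblasts engineered with TERT, LT and ST, with cytotoxicity read by fluorescence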
[2] = luciferase reporter signal reduction – luminescence, H4-C neuroglioblastoma cells, dose response (AID 2458); assay type: functional, cell-based;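 further: H4 neuroglioblastoma cells stably carrying a luciferase reporter gene fusion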
[3] = Fluorescence-based cell-based high throughput dose response assay for inhibitors of the interaction of nucleotide-binding oligomerization domain containing 2 (NOD2) and the receptor-interacting serine-threonine kinase 2 (RIPK2).; assay type: functional; conditions: Homo sapiens
Paired box protein Pax-8 = Paired box protein Pax-8 (Homo sapiens, UniProt Q06710); assay: inhibitors of PAX8-driven TPO luciferase reporter, dose response, RMG-I cells, cherry-pick (AID 687027); assay type: functional, cell-based;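 further: luciferase reporter driven by Pax8 target thyroperoxidase promoter measured by SteadyGlo luminescence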
Chain of Paired box protein Pax-8 (Q06710 whole entry): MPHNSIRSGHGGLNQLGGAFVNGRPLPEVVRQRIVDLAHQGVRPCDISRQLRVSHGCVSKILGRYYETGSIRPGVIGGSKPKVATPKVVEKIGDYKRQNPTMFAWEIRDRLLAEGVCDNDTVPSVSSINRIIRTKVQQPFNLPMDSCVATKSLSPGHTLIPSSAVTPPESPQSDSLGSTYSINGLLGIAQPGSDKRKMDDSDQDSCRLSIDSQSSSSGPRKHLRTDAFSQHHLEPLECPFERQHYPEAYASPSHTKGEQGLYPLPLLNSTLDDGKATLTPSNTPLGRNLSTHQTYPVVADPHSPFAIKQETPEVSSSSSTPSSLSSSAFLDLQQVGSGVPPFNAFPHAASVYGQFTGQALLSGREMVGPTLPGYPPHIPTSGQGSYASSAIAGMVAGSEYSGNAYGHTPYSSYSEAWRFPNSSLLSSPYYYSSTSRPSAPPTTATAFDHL

[4] = inhibitors of SNCA 5'UTR-driven translation, confirmation, luminescence, H4 neuroglioblastoma cells, dose confirmation (AID 2454); assay type: functional, cell-based;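 further: H4 neuroglioblastoma cells carrying an alpha-synuclein 5'UTR luciferase reporter; potency for inhibition of the luciferase signal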
[5] = inhibitors of SNCA 5'UTR-driven reporter translation, confirmation, H4 neuroglioma cells, luminescence (AID 1988); assay type: functional, cell-based
[6] = Luminescence Cell-Based Dose Response HTS to Identify Inhibitors of 5'UTR Stem-Loop Driven Prion Protein mRNA Translation in H4 Neuroglioblastoma Cells. [Related pubchem assays: 1827 (Project Summary), 1813 (Primary HTS)]; assay type: functional
[7] = NIH-3T3 fibroblast cytotoxicity, dose response, cytotoxicity control, cell-based, fluorescence, Alamar Blue, secondary assay (AID 2327); assay type: functional;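 further: NIH-3T3 mouse fibroblasts cultured with fluconazole at 8 µg/mL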
[8] = C. albicans growth with fluconazole, confirmation, fluorescence, retest (AID 2467); assay type: functional, cell-based
[9] = control 3'UTR Renilla luciferase suppression, dose response, counter-screen for Shn3 inhibitor project, cell-based, Clone20-Shn3RL, cherry-picked (AID 624133); assay type: functional
[10] = HepG2 cell cytotoxicity, dose response, cytotoxicity control for Shn3 inhibitor project, CellTiter-Glo, cherry-picked (AID 624134); assay type: functional, cell-based
cells = assay type: functional, cell-based
[11] = inhibitors of firefly luciferase expression or activity, dose response, H4 neuroglioma cells, luminescence (AID 1990); assay type: functional, cell-based
[12] = cytotoxicity in HEK-293T NF-kB-Luc cells, dose response, cytotoxicity control for B/T-cell NF-kB inhibitor project, cell-based, uHTS hits (AID 489019); assay type: functional;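 further: IC50 reflects cytotoxicity as loss of cell viability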
[13] = Shn3 3'UTR reporter inhibitors, dose response, cell-based, Clone20 osteoblasts, firefly luciferase, cherry-picked (AID 624132); assay type: functional;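 further: firefly luciferase luminescence from reporter carrying the Shn3 3'UTR in osteoblasts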
[14] = target: Glyceraldehyde-3-phosphate dehydrogenase (Homo sapiens, UniProt P04406)
Chain of Glyceraldehyde-3-phosphate dehydrogenase (P04406 whole entry): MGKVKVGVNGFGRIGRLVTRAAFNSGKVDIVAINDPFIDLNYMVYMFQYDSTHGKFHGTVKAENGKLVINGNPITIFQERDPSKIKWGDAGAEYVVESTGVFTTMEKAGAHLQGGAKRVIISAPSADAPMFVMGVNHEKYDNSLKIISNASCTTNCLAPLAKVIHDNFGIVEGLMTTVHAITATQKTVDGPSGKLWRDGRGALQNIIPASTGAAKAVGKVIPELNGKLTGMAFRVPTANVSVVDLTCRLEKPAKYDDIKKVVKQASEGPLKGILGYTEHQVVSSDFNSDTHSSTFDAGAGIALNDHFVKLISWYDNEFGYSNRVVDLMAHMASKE

[15] = target: T2, Dual specificity protein phosphatase 6 (Rattus norvegicus, UniProt Q64346)
T2 sequence (Q64346 whole entry): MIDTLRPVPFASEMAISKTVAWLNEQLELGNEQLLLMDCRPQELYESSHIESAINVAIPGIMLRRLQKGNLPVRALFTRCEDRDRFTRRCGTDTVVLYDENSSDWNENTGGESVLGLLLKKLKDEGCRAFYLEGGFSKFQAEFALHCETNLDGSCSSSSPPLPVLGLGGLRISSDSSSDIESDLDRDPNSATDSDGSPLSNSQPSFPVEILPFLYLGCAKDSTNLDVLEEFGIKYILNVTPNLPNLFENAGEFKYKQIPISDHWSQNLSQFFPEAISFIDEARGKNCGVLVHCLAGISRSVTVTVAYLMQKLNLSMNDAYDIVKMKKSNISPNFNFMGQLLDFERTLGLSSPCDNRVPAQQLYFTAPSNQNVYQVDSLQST

[16] = target: Tyrosine-protein phosphatase non-receptor type 7 (Homo sapiens, UniProt P35236); assay type: functional
Chain of Tyrosine-protein phosphatase non-receptor type 7 (P35236 whole entry): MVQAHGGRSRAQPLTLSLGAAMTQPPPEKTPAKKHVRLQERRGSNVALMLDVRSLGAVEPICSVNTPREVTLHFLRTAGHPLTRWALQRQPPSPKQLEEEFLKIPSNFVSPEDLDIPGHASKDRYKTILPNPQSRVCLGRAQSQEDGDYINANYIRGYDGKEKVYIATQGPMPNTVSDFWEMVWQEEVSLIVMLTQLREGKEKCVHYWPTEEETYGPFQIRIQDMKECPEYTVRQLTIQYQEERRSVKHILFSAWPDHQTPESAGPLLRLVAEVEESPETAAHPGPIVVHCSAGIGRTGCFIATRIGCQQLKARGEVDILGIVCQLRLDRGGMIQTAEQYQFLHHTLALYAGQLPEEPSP

[17] = target: T2, Dual specificity protein phosphatase 6; assay type: functional
[18] = cytotoxicity in HMLE control line with eGFP shRNA, dose response, counter-screen for HMLE_sh_ECad selective toxicity project, cell-based, HMLE_sh_eGFP, luminescence (AID 463074); assay type: functional, Homo sapiens;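 further: HMLE human mammary epithelial cells expressing control shRNA against eGFP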
[19] = Luminescence Cell-Based Dose Retest to Confirm Inhibitors of Cancer Stem Cells. [Related pubchem assays (depositor defined):AID2717, AID2721]; assay type: functional; conditions: Homo sapiens

Chain of CAAX prenyl protease 1 (P47154 whole entry): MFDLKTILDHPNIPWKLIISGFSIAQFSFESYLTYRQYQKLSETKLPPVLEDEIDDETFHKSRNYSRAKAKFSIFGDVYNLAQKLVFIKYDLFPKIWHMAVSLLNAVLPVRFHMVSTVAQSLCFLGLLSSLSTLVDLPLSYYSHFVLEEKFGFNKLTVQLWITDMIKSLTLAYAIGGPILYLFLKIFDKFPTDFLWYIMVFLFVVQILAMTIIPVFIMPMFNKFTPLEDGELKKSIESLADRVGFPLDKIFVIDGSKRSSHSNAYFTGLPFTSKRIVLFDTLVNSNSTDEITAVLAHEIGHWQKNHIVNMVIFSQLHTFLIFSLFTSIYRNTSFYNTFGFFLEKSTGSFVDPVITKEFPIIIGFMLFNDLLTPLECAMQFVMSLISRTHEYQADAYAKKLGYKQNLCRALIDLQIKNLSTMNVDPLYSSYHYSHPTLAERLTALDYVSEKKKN

Cc1cc(N2CCOCC2)n2cc(-c3ccccc3)nc2n1
AC50 (CAAX prenyl protease 1): 38600 nM (active)

COc1ccc(C[C@H]2NC[C@H](O)[C@H]2OC(C)=O)cc1 [ANISOMYCIN]
EC50 [1]: 243 nM (active)
IC50 (Jurkat): < 160 nM (active)
EC50 (BJ): 30.8 nM (active)
EC50 [2]: 91 nM (active)
IC50 [3]: 49800 nM (inactive)
AC50 (Paired box protein Pax-8): < 260 nM (active)
EC50 [4]: 104 nM (active)
EC50 [5]: < 100 nM (active)
EC50 [6]: > 120000 nM (not active)
EC50 [7]: < 120 nM (active)
EC50 [8]: 1030 nM (active)
AC50 [9]: 3440 nM (active)
AC50 [10]: > 70000 nM (inactive)
EC50 (cells): 121 nM (active)
EC50 [11]: < 100 nM (active)
IC50 [12]: > 80000 nM (inactive)
AC50 [13]: 882 nM (active)

Cc1ccccc1Cn1c(=O)n(-c2ccccc2)c(=O)n([C@@H](C)C(N)=O)c1=O
IC50 [14]: > 100000 nM (not active)
IC50 [15]: > 100000 nM (inactive)
IC50 [16]: > 100000 nM (not active)
IC50 [17]: > 100000 nM (inactive)

COc1cc(OC)cc(-c2c(-c3cccs3)c3cc(-c4ccc(N(C)C)nc4)ccc3n2C)c1
AC50 [18]: 109000 nM (active)
AC50 [19]: 28500 nM (active)

Source: ChEMBL document CHEMBL1201862, “PubChem BioAssay data set” (2004)
